Test results from DBAASP.
≈ marks a conversion by molar mass, not a printed value. Each block holds one compound with its values, some of them ahead of it.

What was measured:
Assay in all cases: ≥ marks a high value that may be exact or a test limit, other limits are often not marked, values filed in µg/mL are converted to µM
[1] = tested on: Staphylococcus aureus LAC
[2] = tested on: Escherichia coli ATCC 25922
[3] = tested on: Staphylococcus aureus ATCC 29213
[4] = tested on: Micrococcus luteus VKM B-1314
Escherichia coli ML-35p = tested on: Escherichia coli ML-35p
Escherichia coli C600 = tested on: Escherichia coli C600
[5] = tested on: Staphylococcus aureus 209P
[6] = tested on: Escherichia coli BL21(DE3)
[7] = tested on: Bacillus megaterium VKM41
[8] = tested on: Pseudomonas aeruginosa PAO1
[9] = tested on: Bacillus licheniformis VK21
Acinetobacter baumannii = tested on: Acinetobacter baumannii
[10] = tested on: Bacillus subtilis VKM B-886
[11] = tested on: Escherichia coli CCARM 1238
[12] = tested on: Candida albicans KCTC 7270
[13] = tested on: Trichosporon beigelii KCTC 7707
[14] = tested on: Escherichia coli CCARM 1229
[15] = tested on: Pseudomonas aeruginosa 4891
[16] = tested on: Pseudomonas aeruginosa 4007
[17] = tested on: Staphylococcus aureus CCARM 3518
[18] = tested on: Staphylococcus aureus CCARM 3090
[19] = tested on: Klebsiella oxytoca ATCC 13182
[20] = tested on: Klebsiella pneumoniae ATCC 700603
[21] = tested on: Escherichia coli ATCC 35218
[22] = tested on: Serratia marcescens ATCC 13880
[23] = tested on: Staphylococcus aureus ATCC 80958
Aspergillus niger = tested on: Aspergillus niger
Penicillium expansum = tested on: Penicillium expansum
[24] = tested on: Enterococcus faecium KCCM 12118
[25] = tested on: Escherichia coli KCTC 1682
[26] = tested on: Bacillus subtilis KCTC 3068
[27] = tested on: Salmonella typhimurium KCTC 1926
[28] = tested on: Staphylococcus aureus KCTC 1621
[29] = tested on: Enterococcus faecalis ATCC 51575
[30] = tested on: Enterococcus faecalis KCCM 29212
[31] = tested on: Staphylococcus aureus KCCM 40510
[32] = tested on: Pseudomonas aeruginosa KCTC 1637
[33] = tested on: Enterococcus faecium ATCC 51559
[34] = tested on: Staphylococcus epidermidis KCTC 1917
Pseudomonas aeruginosa = tested on: Pseudomonas aeruginosa
[35] = tested on: Bacillus subtilis ATCC 23857
[36] = tested on: Candida tropicalis ATCC 750
[37] = tested on: Staphylococcus epidermidis ATCC 12228
[38] = tested on: Pseudomonas aeruginosa ATCC 27853
Staphylococcus aureus MR = tested on: Staphylococcus aureus MR
Candida krusei ATCC 6258 = tested on: Candida krusei ATCC 6258
[39] = tested on: Candida albicans ATCC 14053
Escherichia coli ESBL = tested on: Escherichia coli ESBL
[40] = tested on: Candida glabrata ATCC 2001
[41] = tested on: Cronobacter sakazakii ATCC 29544
[42] = tested on: Candida parapsilosis ATCC 22019
[43] = tested on: Escherichia coli ATCC 43827

- MIC (Aspergillus niger): 26.6 µM (≈ 50 µg/mL)
- MIC (Penicillium expansum): 13.3 µM (≈ 25 µg/mL)
Compound: CC(C)C[C@H](NC(=O)[C@H](Cc1ccccc1)NC(=O)[C@H](CCCN=C(N)N)NC(=O)[C@@H]1CCCN1C(=O)[C@H](C)NC(=O)[C@H](Cc1c[nH]c2ccccc12)NC(=O)[C@H](Cc1c[nH]c2ccccc12)NC(=O)[C@H](C)NC(=O)[C@H](CCCN=C(N)N)NC(=O)[C@H](Cc1ccccc1)NC(=O)[C@H](Cc1ccccc1)NC(=O)[C@H](CCCCN)NC(=O)[C@@H](N)CCCCN)C(=O)N[C@@H](CCCCN)C(N)=O [KKFFRAWWAPRFLK]

- MIC [24]: 1.83 µM (≈ 2 µg/mL)
- MIC [25]: 3.65 µM (≈ 4 µg/mL)
- MIC [26]: 1.83 µM (≈ 2 µg/mL)
- MIC [27]: 3.65 µM (≈ 4 µg/mL)
- MIC [28]: 3.65 µM (≈ 4 µg/mL)
- MIC [29]: 3.65 µM (≈ 4 µg/mL)
- MIC [30]: 1.83 µM (≈ 2 µg/mL)
- MIC [31]: 3.65 µM (≈ 4 µg/mL)
- MIC [32]: 7.3 µM (≈ 7.99 µg/mL)
- MIC [33]: 0.913 µM (≈ 0.999 µg/mL)
- MIC [34]: 3.65 µM (≈ 4 µg/mL)
Compound: CC[C@H](C)[C@H](NC(=O)[C@H](CC(C)C)NC(=O)[C@H](CC(C)C)NC(=O)[C@@H](N)CC(C)C)C(=O)N[C@H](C(=O)N[C@@H](CC(C)C)C(=O)N[C@@H](CCCN=C(N)N)C(=O)N[C@@H](CCCCN)C(=O)N[C@@H](CCCCN)C(N)=O)C(C)C [LLLIVLRKK]

- MIC (Pseudomonas aeruginosa): 32 µM (≈ 30.5 µg/mL)
- MIC [3]: 128 µM (≈ 122 µg/mL)
- MIC [35]: ≥ 32 µM
- MIC [36]: 15.7 µM (≈ 15 µg/mL)
- MIC [37]: 64 µM (≈ 61 µg/mL)
- MIC [20]: 64 µM (≈ 61 µg/mL)
- MIC [38]: 32 µM (≈ 30.5 µg/mL)
- MIC (Staphylococcus aureus MR): ≥ 128 µM
- MIC (Candida krusei ATCC 6258): 31.4 µM (≈ 30 µg/mL)
- MIC [39]: ≥ 63.9 µM
- MIC (Escherichia coli ESBL): ≥ 32 µM
- MIC [40]: 31.4 µM (≈ 30 µg/mL)
- MIC [2]: 32 µM (≈ 30.5 µg/mL)
- MIC [41]: ≥ 64 µM
- MIC [42]: ≥ 63.9 µM
- MIC [43]: ≥ 32 µM
Compound: CC(C)C[C@H](NC(=O)[C@H](Cc1cnc[nH]1)NC(=O)[C@H](CC(C)C)NC(=O)[C@H](CO)NC(=O)[C@H](CC(C)C)NC(=O)[C@H](CCCCN)NC(=O)[C@H](Cc1ccccc1)NC(=O)[C@@H]1CCCN1)C(N)=O [PFKLSLHL]

More lines, now with the values behind:

Compound: NC(N)=NCCC[C@H](NC(=O)[C@H](CCCN=C(N)N)NC(=O)[C@H](CCCN=C(N)N)NC(=O)[C@H](CCCN=C(N)N)NC(=O)[C@H](Cc1ccccc1)NC(=O)[C@H](Cc1ccccc1)NC(=O)[C@H](Cc1ccccc1)NC(=O)[C@@H](N)Cc1ccccc1)C(=O)O [FFFFRRRR]
- MIC [1]: ≥ 104 µM
- MIC [2]: > 104 µM

Compound: CC[C@H](C)[C@H](NC(=O)[C@H](C)NC(=O)[C@@H](NC(=O)CNC(=O)[C@@H](NC(=O)[C@H](CC(N)=O)NC(=O)[C@H](CCCCN)NC(=O)[C@H](C)NC(=O)CNC(=O)[C@H](CC(=O)O)NC(=O)[C@H](Cc1c[nH]c2ccccc12)NC(=O)[C@@H](NC(=O)[C@H](CO)NC(=O)[C@H](CO)NC(=O)[C@H](Cc1c[nH]c2ccccc12)NC(=O)[C@H](Cc1ccccc1)NC(=O)CN)C(C)C)C(C)C)[C@@H](C)O)C(=O)O [GFWSSVWDGAKNVGTAI]
- MIC [3]: > 16 µM
- MIC [4]: 16 µM (≈ 28.7 µg/mL)
- MIC (Escherichia coli ML-35p): ≥ 64 µM
- MIC (Escherichia coli C600): ≥ 64 µM
- MIC [5]: 16 µM (≈ 28.7 µg/mL)
- MIC [6]: ≥ 64 µM
- MIC [7]: 16 µM (≈ 28.7 µg/mL)
- MIC [8]: > 64 µM
- MIC [9]: 16 µM (≈ 28.7 µg/mL)
- MIC (Acinetobacter baumannii): ≥ 64 µM
- MIC [10]: 16 µM (≈ 28.7 µg/mL)

Compound: CC[C@H](C)[C@H](NC(=O)[C@H](C)NC(=O)[C@H](CCC(=O)O)NC(=O)[C@H](Cc1cnc[nH]1)NC(=O)[C@@H](NC(=O)[C@H](CCCCN)NC(=O)[C@H](CCC(N)=O)NC(=O)[C@H](Cc1ccccc1)NC(=O)[C@@H](NC(=O)[C@H](CCCCN)NC(=O)[C@H](CCCCN)NC(=O)[C@H](CC(C)C)NC(=O)[C@H](C)NC(=O)[C@H](CC(N)=O)NC(=O)[C@H](CC(C)C)NC(=O)CN)C(C)C)[C@@H](C)CC)C(=O)N[C@@H](CCCCN)C(=O)N[C@@H](CC(C)C)C(=O)N[C@H](C(=O)N[C@@H](CC(N)=O)C(=O)N[C@@H](CC(N)=O)C(=O)N[C@@H](Cc1cnc[nH]1)C(=O)N[C@H](C(=O)N[C@@H](CCC(N)=O)C(N)=O)C(C)C)[C@@H](C)CC [GLNALKKVFQKIHEAIKLINNHVQ]
- MIC [11]: 2 µM (≈ 5.51 µg/mL)
- MIC [12]: ≥ 32 µM
- MIC [13]: ≥ 32 µM
- MIC [14]: 2 µM (≈ 5.51 µg/mL)
- MIC [15]: 4 µM (≈ 11 µg/mL)
- MIC [16]: 2 µM (≈ 5.51 µg/mL)
- MIC [17]: 4 µM (≈ 11 µg/mL)
- MIC [18]: 4 µM (≈ 11 µg/mL)

Compound: CC[C@H](C)[C@H](NC(=O)[C@H](Cc1ccc(O)cc1)NC(=O)[C@H](Cc1ccc(O)cc1)NC(=O)[C@H](CO)NC(=O)CNC(=O)CNC(=O)[C@H](CC(N)=O)NC(=O)[C@H](CCCN=C(N)N)NC(=O)[C@H](CC(C)C)NC(=O)[C@H](Cc1ccccc1)NC(=O)[C@H](CC(N)=O)NC(=O)CN)C(=O)N[C@H](C(=O)N1CCC[C@H]1C(=O)N[C@@H](C)C(=O)N[C@@H](Cc1ccccc1)C(=O)N[C@@H](CCCN=C(N)N)C(=O)NCC(=O)O)C(C)C [GNFLRNGGSYYIVPAFRG]
- MIC [19]: 30 µM (≈ 59.6 µg/mL)
- MIC [20]: > 30 µM
- MIC [21]: 30 µM (≈ 59.6 µg/mL)
- MIC [22]: 30 µM (≈ 59.6 µg/mL)
- MIC [23]: 30 µM (≈ 59.6 µg/mL)
